Experimental data as given in ChEMBL document CHEMBL5518224, “Rational Design of PARP1/c-Met Dual Inhibitors for Overcoming PARP1 Inhibitor Resistance Induced by c-Met Overexpression” (J Med Chem, 2024).
Each block holds one molecule with its values, some of them ahead of it. Active and inactive are the calls of the source. The calls are words filed in the database; no cut-off is given here.

Legend:
[1] = molecular target: T1, Poly [ADP-ribose] polymerase 1 (Homo sapiens, UniProt P09874); experiment: Inhibition of PARP1 (unknown origin) using histone as substrate incubated for 45 mins by absorbance based analysis
[2] = molecular target: T2, Hepatocyte growth factor receptor (Homo sapiens, UniProt P08581); experiment: Inhibition of c-Met (unknown origin) by HTRF method
[3] = tested on: MDA-MB-231; experiment: Effect on homologous recombination in human MDA-MB-231 cells assessed as reduction in BRCA1 protein level by measuring disruption of BRCA1-BRCA2-Rad51 complex formation at 0.5 uM incubated for 72 hrs by Western blot analysis; assay type: functional, cell-based
[4] = tested on: MDA-MB-231; experiment: Downregulation of PAR mRNA level in human MDA-MB-231 cells with H2O2-induced oxidative stress at 0.5 uM by RT-qPCR analysis; assay type: functional, cell-based
[5] = tested on: MDA-MB-231; experiment: Effect on homologous recombination in human MDA-MB-231 cells assessed as reduction in Rad51 nuclear level at 0.5 to 1 uM incubated for 72 hrs by immunofluorescence analysis; assay type: functional, cell-based; settings: dose 0.5-1 µM
[6] = tested on: MDA-MB-231; experiment: Effect on homologous recombination in human MDA-MB-231 cells assessed as reduction in Rad51 mRNA level by measuring disruption of BRCA1-BRCA2-Rad51 complex formation at 0.5 uM by RT-qPCR analysis; assay type: functional, cell-based
[7] = tested on: MDA-MB-231; experiment: Induction of DNA damage in human MDA-MB-231 cells assessed as increase in gammaH2AX protein level at 0.5 uM incubated for 72 hrs by Western blot analysis; assay type: functional, cell-based
[8] = tested on: MDA-MB-231; experiment: Downregulation of phosphorylated AKT level in human MDA-MB-231 cells with H2O2-induced oxidative stress at 0.5 uM incubated for 72 hrs by Western blot analysis; assay type: functional, cell-based
[9] = tested on: MDA-MB-231; experiment: Antitumor activity against human MDA-MB-231 cells xenografted in female Balb/c nude mouse assessed as reduction in tumor weight at 12.5 to 50 mg/kg/day, ip qd administered for 28 days; assay type: functional, organism-based; settings: dose 12.5-50 mg/kg/day, time 28.0 day
[10] = tested on: Olaparib-resistant HCT116; experiment: Antitumor activity against human Olaparib-resistant HCT116 cells xenografted in female Balb/c nude mouse assessed as reduction in tumor weight at 5 mg/kg/day, iv qd administered for 21 days; assay type: functional, organism-based; settings: time 21.0 day
[11] = tested on: MDA-MB-231; experiment: Antitumor activity against human MDA-MB-231 cells xenografted in female Balb/c nude mouse assessed as induction of DNA damage by measuring increase in gammaH2AX expression in tumor at 50 mg/kg/day, ip qd administered for 28 days by immunohistochemistry analysis; assay type: functional, organism-based; settings: time 28.0 day
[12] = tested on: MDA-MB-231; experiment: Downregulation of phosphorylated c-MET mRNA level in human MDA-MB-231 cells with H2O2-induced oxidative stress at 0.5 uM by RT-qPCR analysis; assay type: functional, cell-based
[13] = tested on: MDA-MB-231; experiment: Inhibition of PARP1/c-Met protein-protein interaction in H2O2 stimulated human MDA-MB-231 cells at 0.5 uM incubated for 72 hrs by proximity ligation assay; assay type: cell-based
[14] = tested on: MDA-MB-231; experiment: Antiproliferative activity against human MDA-MB-231 cells assessed as inhibition of cell growth assessed as reduction in colony formation at 0.5 to 1 uM incubated for 14 days by crystal violet staining based microscopic analysis; assay type: functional; settings: dose 0.5-1 µM, time 14.0 day
[15] = tested on: MDA-MB-231; experiment: Effect on c-MET […] in human MDA-MB-231 cells with H2O2-induced oxidative stress at 0.5 uM by RT-qPCR analysis; assay type: functional, cell-based
[16] = molecular target: T1, Poly [ADP-ribose] polymerase 1; experiment: Binding affinity to PARP1 in human MDA-MB-231 cells assessed as thermal stabilization at 1 uM at 43 to 55 degreeC incubated for 12 hrs by CETSA; assay type: cell-based
[17] = tested on: MDA-MB-231; experiment: Effect on PARP1 protein expression in human MDA-MB-231 cells with H2O2-induced oxidative stress at 0.5 uM incubated for 72 hrs by Western blot analysis; assay type: functional, cell-based
[18] = tested on: MDA-MB-231; experiment: Antitumor activity against human MDA-MB-231 cells xenografted in female Balb/c nude mouse assessed as induction of apoptosis by measuring upregulation of cleaved caspase-3 expression in tumor at 50 mg/kg/day, ip qd administered for 28 days by immunohistochemistry analysis; assay type: functional, organism-based; settings: time 28.0 day
[19] = tested on: MDA-MB-231; experiment: Downregulation of PAR protein level in human MDA-MB-231 cells with H2O2-induced oxidative stress at 0.5 uM incubated for 72 hrs by Western blot analysis; assay type: functional, cell-based
[20] = tested on: MDA-MB-231; experiment: Downregulation of phosphorylated AKT level in human MDA-MB-231 cells with H2O2-induced oxidative stress at 0.5 uM […]; assay type: functional, cell-based
[21] = molecular target: T2, Hepatocyte growth factor receptor; experiment: Binding affinity to c-Met in human MDA-MB-231 cells assessed as thermal stabilization at 1 uM at 43 to 55 degreeC incubated for 12 hrs by CETSA; assay type: cell-based
[22] = molecular target: ALK tyrosine kinase receptor (Homo sapiens) (UniProt Q9UM73); experiment: Inhibition of ALK (unknown origin) at 1 uM relative to control
[23] = tested on: MDA-MB-231; experiment: Effect on homologous recombination in human MDA-MB-231 cells assessed as reduction in BRCA1 mRNA level by measuring disruption of BRCA1-BRCA2-Rad51 complex formation at 0.5 uM by RT-qPCR analysis; assay type: functional, cell-based
[24] = tested on: MDA-MB-231; experiment: Induction of DNA damage in human MDA-MB-231 cells assessed as increase in gammaH2AX […] analysis; assay type: functional, cell-based
[25] = tested on: MDA-MB-231; experiment: Induction of DNA damage in human MDA-MB-231 cells assessed as increase in tail DNA at 0.5 uM incubated for 72 hrs by comet assay; assay type: functional, cell-based
[26] = tested on: MDA-MB-231; experiment: Effect on PARP1 […] in human MDA-MB-231 cells with H2O2-induced oxidative stress at 0.5 uM by RT-qPCR analysis; assay type: functional, cell-based
[27] = tested on: MDA-MB-231; experiment: Downregulation of phosphorylated c-MET protein level in human MDA-MB-231 cells with H2O2-induced oxidative stress at 0.5 uM incubated for 72 hrs by Western blot analysis; assay type: functional, cell-based
[28] = tested on: MDA-MB-231; experiment: Effect on homologous recombination in human MDA-MB-231 cells assessed as reduction in Rad51 protein level by measuring disruption of BRCA1-BRCA2-Rad51 complex formation at 0.5 uM incubated for 72 hrs by Western blot analysis; assay type: functional, cell-based
[29] = tested on: MDA-MB-231; experiment: Antitumor activity against human MDA-MB-231 cells xenografted in female Balb/c nude mouse assessed as reduction in Ki67 expression in tumor at 50 mg/kg/day, ip qd administered for 28 days by immunohistochemistry analysis; assay type: functional, organism-based; settings: time 28.0 day
[30] = tested on: MDA-MB-231; experiment: Effect on homologous recombination in human MDA-MB-231 cells assessed as reduction in BRCA2-Rad51 complex formation at 0.5 uM incubated for 72 hrs by proximity ligation assay; assay type: functional, cell-based
[31] = molecular target: Proto-oncogene tyrosine-protein kinase ROS (Homo sapiens) (UniProt P08922); experiment: Inhibition of ROS1 (unknown origin) at 1 uM relative to control
[32] = tested on: Olaparib-resistant HCT116; experiment: Antitumor activity against human Olaparib-resistant HCT116 cells xenografted in female Balb/c nude mouse assessed as reduction in tumor weight at 25 to 100 mg/kg/day, ip qd administered for 21 days; assay type: functional, organism-based; settings: dose 25-100 mg/kg/day, time 21.0 day
[33] = molecular target: T2, Hepatocyte growth factor receptor; experiment: Inhibition of c-Met (unknown origin) at 1 uM relative to control
[34] = tested on: MDA-MB-231; experiment: Effect on c-MET protein expression in human MDA-MB-231 cells with H2O2-induced oxidative stress at 0.5 uM incubated for 72 hrs by Western blot analysis; assay type: functional, cell-based
[35] = tested on: MDA-MB-231; experiment: Effect on BRCA2 protein level in human MDA-MB-231 cells at 0.5 uM incubated for 72 hrs by Western blot analysis; assay type: functional, cell-based
[36] = tested on: MDA-MB-231; experiment: Antitumor activity against human MDA-MB-231 cells xenografted in female Balb/c nude mouse assessed as reduction in BRCA1 expression in tumor at 50 mg/kg/day, ip qd administered for 28 days by immunohistochemistry analysis; assay type: functional, organism-based; settings: time 28.0 day
[37] = tested on: MDA-MB-231; experiment: Induction of DNA damage in human MDA-MB-231 cells assessed as increase in gammaH2AX expression at 0.5 to 1 uM incubated for 3 days by immunofluorescence based laser confocal microscopic analysis; assay type: functional, cell-based; settings: dose 0.5-1 µM, time 3.0 day
[38] = tested on: MDA-MB-231; experiment: Effect on BRCA2 mRNA level in human MDA-MB-231 cells at 0.5 uM by RT-qPCR analysis; assay type: functional, cell-based
[39] = tested on: MDA-MB-231; experiment: Induction of G2/M phase cell cycle arrest in human MDA-MB-231 cells at 0.5 to 1 uM incubated for 4 days by PI staining based flow cytometry analysis; assay type: functional; settings: dose 0.5-1 µM, time 4.0 day
[40] = tested on: MDA-MB-231; experiment: Antiproliferative activity against human MDA-MB-231 cells harboring wild type BRCA and c-Met amplification assessed as inhibition of cell growth incubated for 7 days by MTT assay; assay type: functional, cell-based; settings: MDA-MB-231, 168 h

T1 sequence (P09874 whole entry): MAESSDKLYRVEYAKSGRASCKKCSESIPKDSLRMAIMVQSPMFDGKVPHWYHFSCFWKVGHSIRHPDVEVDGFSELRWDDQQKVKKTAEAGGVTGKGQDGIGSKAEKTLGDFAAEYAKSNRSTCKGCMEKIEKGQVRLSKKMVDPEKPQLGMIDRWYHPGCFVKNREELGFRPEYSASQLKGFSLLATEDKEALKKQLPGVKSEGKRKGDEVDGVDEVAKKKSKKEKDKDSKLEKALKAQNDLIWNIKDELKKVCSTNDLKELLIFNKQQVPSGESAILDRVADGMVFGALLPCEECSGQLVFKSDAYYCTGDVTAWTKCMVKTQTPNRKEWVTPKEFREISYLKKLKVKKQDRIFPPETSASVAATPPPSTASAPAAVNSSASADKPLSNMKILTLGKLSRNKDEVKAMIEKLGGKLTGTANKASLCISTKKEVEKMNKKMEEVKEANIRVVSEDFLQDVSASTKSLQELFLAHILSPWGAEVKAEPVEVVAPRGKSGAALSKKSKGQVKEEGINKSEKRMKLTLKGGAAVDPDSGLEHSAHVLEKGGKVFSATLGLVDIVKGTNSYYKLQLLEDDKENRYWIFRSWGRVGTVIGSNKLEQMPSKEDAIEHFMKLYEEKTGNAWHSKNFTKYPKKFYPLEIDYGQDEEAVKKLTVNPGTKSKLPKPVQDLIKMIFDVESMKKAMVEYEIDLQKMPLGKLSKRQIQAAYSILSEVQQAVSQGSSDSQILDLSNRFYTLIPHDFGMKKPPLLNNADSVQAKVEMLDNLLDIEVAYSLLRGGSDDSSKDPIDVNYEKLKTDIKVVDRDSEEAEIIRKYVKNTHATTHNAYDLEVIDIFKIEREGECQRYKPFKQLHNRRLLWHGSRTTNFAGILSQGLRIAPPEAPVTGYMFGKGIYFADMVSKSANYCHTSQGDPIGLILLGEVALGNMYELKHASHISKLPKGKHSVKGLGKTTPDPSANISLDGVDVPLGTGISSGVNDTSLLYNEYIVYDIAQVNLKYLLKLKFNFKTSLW
T2 sequence (P08581 whole entry): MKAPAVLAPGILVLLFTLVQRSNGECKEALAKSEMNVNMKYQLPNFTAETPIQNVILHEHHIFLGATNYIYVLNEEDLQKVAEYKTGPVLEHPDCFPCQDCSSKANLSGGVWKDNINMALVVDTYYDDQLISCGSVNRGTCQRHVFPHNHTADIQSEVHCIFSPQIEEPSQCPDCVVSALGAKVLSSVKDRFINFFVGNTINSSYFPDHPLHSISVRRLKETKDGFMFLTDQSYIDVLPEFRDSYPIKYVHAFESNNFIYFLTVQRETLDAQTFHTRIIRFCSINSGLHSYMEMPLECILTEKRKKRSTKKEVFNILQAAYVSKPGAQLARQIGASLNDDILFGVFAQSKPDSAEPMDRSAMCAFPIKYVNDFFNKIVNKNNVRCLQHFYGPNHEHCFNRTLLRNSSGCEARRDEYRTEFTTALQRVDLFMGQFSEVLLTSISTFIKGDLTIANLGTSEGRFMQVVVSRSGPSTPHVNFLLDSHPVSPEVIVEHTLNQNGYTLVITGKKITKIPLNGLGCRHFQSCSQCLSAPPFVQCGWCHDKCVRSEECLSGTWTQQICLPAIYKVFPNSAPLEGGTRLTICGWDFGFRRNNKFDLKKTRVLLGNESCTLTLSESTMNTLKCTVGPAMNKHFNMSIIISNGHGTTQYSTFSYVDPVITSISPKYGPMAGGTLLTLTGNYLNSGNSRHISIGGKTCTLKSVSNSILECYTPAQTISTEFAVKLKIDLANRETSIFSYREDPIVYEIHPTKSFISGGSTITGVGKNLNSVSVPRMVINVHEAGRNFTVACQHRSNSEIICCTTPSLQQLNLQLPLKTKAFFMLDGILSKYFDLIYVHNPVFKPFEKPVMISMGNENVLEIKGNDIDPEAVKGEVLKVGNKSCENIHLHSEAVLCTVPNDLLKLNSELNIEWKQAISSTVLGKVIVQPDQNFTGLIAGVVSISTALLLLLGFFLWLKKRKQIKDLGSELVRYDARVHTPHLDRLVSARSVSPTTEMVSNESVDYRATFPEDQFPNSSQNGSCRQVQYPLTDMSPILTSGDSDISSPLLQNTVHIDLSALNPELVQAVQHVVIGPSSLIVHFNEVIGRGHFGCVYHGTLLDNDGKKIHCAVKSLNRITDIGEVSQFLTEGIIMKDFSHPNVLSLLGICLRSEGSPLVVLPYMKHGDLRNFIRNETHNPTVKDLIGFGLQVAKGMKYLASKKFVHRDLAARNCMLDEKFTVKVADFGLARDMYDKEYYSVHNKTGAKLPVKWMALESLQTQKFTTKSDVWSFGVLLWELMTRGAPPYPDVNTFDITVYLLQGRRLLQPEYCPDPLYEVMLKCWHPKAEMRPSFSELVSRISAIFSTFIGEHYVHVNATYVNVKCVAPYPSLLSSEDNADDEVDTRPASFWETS
ALK tyrosine kinase receptor (Homo sapiens), sequence (Q9UM73 19-1620 limits assumed): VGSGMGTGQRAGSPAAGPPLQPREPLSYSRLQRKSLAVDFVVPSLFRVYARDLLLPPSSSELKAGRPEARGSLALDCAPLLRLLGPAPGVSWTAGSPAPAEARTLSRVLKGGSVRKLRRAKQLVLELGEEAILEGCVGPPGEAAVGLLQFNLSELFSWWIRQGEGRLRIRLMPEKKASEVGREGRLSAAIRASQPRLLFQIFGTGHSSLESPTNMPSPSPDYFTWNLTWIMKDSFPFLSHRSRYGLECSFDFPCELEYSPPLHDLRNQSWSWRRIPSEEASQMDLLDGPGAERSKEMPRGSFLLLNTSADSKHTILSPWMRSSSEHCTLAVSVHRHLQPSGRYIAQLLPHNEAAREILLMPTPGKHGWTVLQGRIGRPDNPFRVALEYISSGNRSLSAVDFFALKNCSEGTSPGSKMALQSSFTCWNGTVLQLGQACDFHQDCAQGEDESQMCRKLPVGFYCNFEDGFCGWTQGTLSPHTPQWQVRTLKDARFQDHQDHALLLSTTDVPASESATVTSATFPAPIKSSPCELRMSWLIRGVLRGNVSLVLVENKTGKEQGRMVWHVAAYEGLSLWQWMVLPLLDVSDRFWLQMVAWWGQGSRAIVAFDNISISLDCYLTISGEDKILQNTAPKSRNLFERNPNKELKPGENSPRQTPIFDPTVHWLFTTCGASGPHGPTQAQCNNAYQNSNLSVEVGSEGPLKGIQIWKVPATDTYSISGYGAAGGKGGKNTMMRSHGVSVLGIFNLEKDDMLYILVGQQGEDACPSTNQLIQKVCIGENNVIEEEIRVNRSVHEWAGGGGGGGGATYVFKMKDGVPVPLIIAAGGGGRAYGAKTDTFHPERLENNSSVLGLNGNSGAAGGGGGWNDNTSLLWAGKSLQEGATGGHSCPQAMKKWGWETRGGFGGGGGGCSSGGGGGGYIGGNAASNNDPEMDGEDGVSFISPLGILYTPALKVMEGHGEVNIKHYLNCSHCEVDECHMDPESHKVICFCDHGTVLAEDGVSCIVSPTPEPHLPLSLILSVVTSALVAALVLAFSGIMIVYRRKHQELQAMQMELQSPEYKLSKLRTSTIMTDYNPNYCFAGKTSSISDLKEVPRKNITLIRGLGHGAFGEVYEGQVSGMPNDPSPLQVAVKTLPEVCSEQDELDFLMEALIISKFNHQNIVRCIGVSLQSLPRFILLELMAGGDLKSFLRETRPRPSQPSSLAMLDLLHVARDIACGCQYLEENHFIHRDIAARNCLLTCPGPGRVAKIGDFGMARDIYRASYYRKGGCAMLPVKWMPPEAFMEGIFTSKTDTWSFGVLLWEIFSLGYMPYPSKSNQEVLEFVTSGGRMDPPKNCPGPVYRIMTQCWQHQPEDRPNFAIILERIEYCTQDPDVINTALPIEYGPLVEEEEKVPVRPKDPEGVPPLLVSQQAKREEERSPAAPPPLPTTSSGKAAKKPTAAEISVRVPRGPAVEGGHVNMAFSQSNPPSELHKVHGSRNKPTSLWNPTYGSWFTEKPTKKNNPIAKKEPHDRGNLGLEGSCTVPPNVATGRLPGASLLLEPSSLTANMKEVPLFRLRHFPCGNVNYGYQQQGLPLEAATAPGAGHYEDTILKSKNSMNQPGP

SMILES: O=C(c1cc(Cc2n[nH]c(=O)c3ccccc23)ccc1F)N1CCN(c2ccc3c(OCCn4nc(N5CCOCC5)ccc4=O)ccnc3c2)CC1
IC50 [1]: 7.1 nM
IC50 [2]: 51.2 nM

SMILES: O=C(c1cc(Cc2n[nH]c(=O)c3ccccc23)ccc1F)N1CCN(c2ccc3c(OCCn4nc(-c5cccnc5)ccc4=O)ccnc3c2)CC1
Activity [3]: Active
Activity [4]: Active
Activity [5]: Active
Activity [6]: Active
Activity [7]: Active
Activity [8]: Active
Activity [9]: Active
Activity [10]: Active
Activity [11]: Active
Activity [12]: Active
inhibition [13]: Active
Activity [14]: Active
Activity [15]: inactive
Activity [16]: Active
Activity [17]: inactive
Activity [18]: Active
Activity [19]: Active
Activity [20]: Active
Activity [21]: Active
inhibition [22]: 60.3%
Activity [23]: Active
Activity [24]: Active
Activity [25]: Active
Activity [26]: inactive
Activity [27]: Active
Activity [28]: Active
Activity [29]: Active
Activity [30]: Active
inhibition [31]: 63%
Activity [32]: Active
inhibition [33]: 98.3%
Activity [34]: inactive
Activity [35]: inactive
Activity [36]: Active
Activity [37]: Active
Activity [38]: inactive
Activity [39]: Active

SMILES: Cn1cc(-c2ccc(=O)n(CCOc3ccnc4cc(N5CCC(NC(=O)c6cc(Cc7n[nH]c(=O)c8ccccc78)ccc6F)C5)ccc34)n2)cn1 (stereo unspecified)
IC50 [1]: 91.7 nM
IC50 [2]: 33.1 nM

SMILES: Cn1cc(-c2ccc(=O)n(CCOc3ccnc4cc(NC5CCN(C(=O)c6cc(Cc7n[nH]c(=O)c8ccccc78)ccc6F)C5)ccc34)n2)cn1 (stereo unspecified)
IC50 [1]: 5.8 nM
IC50 [2]: 42.6 nM

Further lines, results first:

IC50 [1]: 4.7 nM
IC50 [2]: 126 nM
SMILES: Cn1cc(-c2ccc(=O)n(CCOc3ccnc4cc(NC5CCN(C(=O)c6cc(Cc7n[nH]c(=O)c8ccccc78)ccc6F)CC5)ccc34)n2)cn1

IC50 [40]: 1020 nM
IC50 [1]: 3.7 nM
IC50 [2]: 18.2 nM
SMILES: Cn1cc(-c2ccc(=O)n(CCOc3ccnc4cc(OCCN5CCN(C(=O)c6cc(Cc7n[nH]c(=O)c8ccccc78)ccc6F)CC5)ccc34)n2)cn1

IC50 [40]: 1730 nM
IC50 [1]: 1.1 nM
IC50 [2]: 37.7 nM
SMILES: O=C(c1cc(Cc2n[nH]c(=O)c3ccccc23)ccc1F)N1CCN(c2ccc3c(OCCn4nc(-c5ccccc5)ccc4=O)ccnc3c2)CC1
